Reference: paper PMC9117128, “Phage anti-CBASS and anti-Pycsar nucleases subvert bacterial immunity” (Nature, 2022)

T1: PycTIR (Burkholderia cepacia, UniProt A0A0J5WTU0)
T1 sequence (A0A0J5WTU0 1-303): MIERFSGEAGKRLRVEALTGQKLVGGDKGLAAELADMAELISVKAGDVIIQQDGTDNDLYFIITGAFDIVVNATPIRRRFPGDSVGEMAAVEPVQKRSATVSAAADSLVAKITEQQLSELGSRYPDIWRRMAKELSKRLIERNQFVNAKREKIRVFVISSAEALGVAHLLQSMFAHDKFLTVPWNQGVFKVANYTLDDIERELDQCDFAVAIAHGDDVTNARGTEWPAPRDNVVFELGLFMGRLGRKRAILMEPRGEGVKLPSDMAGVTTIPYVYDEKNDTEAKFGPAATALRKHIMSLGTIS


Legend:
YhfI = target: T2, YhfI (Bacillus subtilis, UniProt O07607); test: HPLC cleavage assay; format: biochemical; details: Mg2+, Mn2+, pH 7.5, 37 °C
T2 construct: recombinant, homodimer

PycTIR = target: T1, PycTIR; test: fluorescent NADase activation assay; format: biochemical; details: 500 µM ε-NAD, pH 7.5, room temperature
[1] = target: the molecule itself; test: crystal structure; hanging-drop crystals grown at 18 °C from purified protein (10 mg/ml, 20 mM HEPES-KOH pH 7.5, 80 mM KCl, 1 mM TCEP); homodimer seen in the crystal structures

T2 sequence (O07607 whole entry): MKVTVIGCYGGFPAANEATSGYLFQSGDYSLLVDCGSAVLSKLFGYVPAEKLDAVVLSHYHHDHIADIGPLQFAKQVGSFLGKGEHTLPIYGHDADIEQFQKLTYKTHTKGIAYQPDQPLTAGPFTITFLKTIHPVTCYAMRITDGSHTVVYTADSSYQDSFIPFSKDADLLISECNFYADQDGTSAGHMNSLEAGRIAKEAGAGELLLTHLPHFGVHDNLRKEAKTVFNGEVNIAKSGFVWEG

Row | Molecule | stoichiometry N [1] | further results
1 | Nc1nc2c(ncn2[C@@H]2O[C@@H]3COP(=O)(O)O[C@H]3[C@H]2O)c(=O)[nH]1 [cGMP] |  | HPLC cleavage assay (YhfI): exhibited a strong preference for cAMP/cGMP over cCMP/cUMP cleavage
2 | O=c1ccn([C@@H]2O[C@@H]3COP(=O)(O)O[C@H]3[C@H]2O)c(=O)[nH]1 [cUMP] |  | fluorescent NADase activation assay (PycTIR; activator): cUMP-dependent activation of the Pycsar NADase effector PycTIR
3 | NC(=O)c1ccc[n+]([C@@H]2O[C@H](COP(=O)(O)OP(=O)(O)OC[C@H]3O[C@@H](n4cnc5c4ncn4ccnc54)[C@H](O)[C@@H]3O)[C@@H](O)[C@H]2O)c1 [ε-NAD] |  | fluorescent NADase activation assay (PycTIR; cUMP as activator): Release of fluorescent substrate from an NAD^+ analogue incubated with the Pycsar effector PycTIR
4 | Paenibacillus xerothermodurans Apyc1 (enzyme, Apyc1 homologue (MBL-fold class II phosphodiesterase) of Paenibacillus xerothermodurans; also called P. xerothermodurans Apyc1; Paenibacillus Apyc1; source: E. coli BL21(DE3) RIL, purified (Ni-NTA, Superdex 75 SEC); not shown: 6×His-SUMO2 or 6×His-MBP-SUMO2, N-terminal, cleaved) SLQIQMIGTGSAFAKKFYNNNALVKCNGFQLLIDCGVTAPRALHELGVPITGIDGILITHIHADHVGGIEEFAFRLKYKYGMTIKLFVPAALVNPLWDHSLRGGLENKAEGLEQLADYFDVVALEEAVVHEIHPGLTVELVRSQHIAGKASYSLLLNNLLFYSSDARFNYAQLVELSTSGRCKYILHDCQLAEPAAVHATLNELLTLPEAVQEMIMLMHYDDEMEQFIGKSGKMSFMQQHKTYSFTEAT | 2 | 
5 | Apyc1 from the phage Bsp38 (enzyme, Anti-Pycsar protein Apyc1 (MBL-fold class II phosphodiesterase) of phage Bsp38; The SUMO2 tag was cleaved with SENP2; also called Bsp38 Apyc1; source: E. coli BL21(DE3) RIL, purified (Ni-NTA, Superdex 75 SEC); not shown: 6×His-SUMO2 or 6×His-MBP-SUMO2, N-terminal, cleaved) MLHTTQIRMVGTGSAFSKKFYNNSALVTFTNGYNLLIDCGHSVPKGLHDADIPLESIDGILITHTHADHIGGLEEVALYNKFVLGGRKIDLLVPNTLVESLWENSLKGGLRYSDTYDDLSLSDYFTVRSLKTFTSGAARTQLEENIAIKLYPTFHVSHMASYAVGLEDRGEDKVFYSSDTIFDEYLIDYALTYSWVFHDCQFFTGGVHASLDELLNYIPEEDQDRVFLMHYGDNMEDFFTKTGRMRFALQGRTYIL | 2 | 
6 | Paenibacillus J14 Apyc1 (enzyme, selenomethionine-labelled, Apyc1 homologue (MBL-fold class II phosphodiesterase) of Paenibacillus J14, GenBank WP_028539944.1; Crystallised with a hydrolysis-resistant phosphorothioate analogue of cAMP; also called P. J14 Apyc1; Paenibacillus Apyc1; source: E. coli BL21(DE3) RIL, selenomethionine-labelled, purified (Ni-NTA, Superdex 75 SEC); not shown: 6×His-SUMO2 or 6×His-MBP-SUMO2, N-terminal, cleaved) ALRLQMLGTGGAFAKKYFNNNALLYAGDFTLLIDCGITAPLALHTIGKSVEEIDAVLITHIHGDHVGGLEELAFRRKFGSGRKPILYIAENLVEPLWENTLKGGLSQDGVIHSLNDVFDVRLLKESEPAQLAPELKVELIRTPHIPGKPSYSLYINDEIFYSADMTFEPELLMRLVRERGCRRIFHEVQLTGKGEVHTTLQELLSLPTEIQSQILLKHYSDDMESFRGATGNMDFLRQHEVYTL | 2 | 
